Where two headings read alike, the source gives them in different places.
Tests used:
[1] = tested on: LU2514 SCLC PDX; test: Efficacy in LU2514 HuPrime SCLC patient derived xenograft; format: in vivo, mice; details: both LU2514 studies
Procedure: Tumor growth inhibition analysis was performed on Day 28 post treatment, the last day of dosing.

[2] = tested on: LXFS 573 SCLC PDX; details: for SS, number of study survivors: Day 133, N=8
[3] = tested on: MKL-1 hMCC xenograft; format: in vivo; details: 5 mg/kg PO 5 on/2 off
[4] = tested on: NCI-H1417 SCLC xenograft; test: Efficacy in NCI-H1417 SCLC xenograft model (athymic nude mice); format: in vivo
[5] = Exploratory toxicity study in mice; format: in vivo, CD-1 mice
Excerpt: Additional animals were included for TK evaluation.

[6] = tested on: MS-1 hMCC xenograft; format: in vivo; details: 5 mg/kg PO 5 on/2 off
[7] = Hemodynamic and ECG parameters in anesthetized guinea pigs; format: in vivo, Dunkin Hartley guinea pigs
Excerpt: Animals were monitored throughout the experiment.

[8] = tested on: LXFS 573 SCLC PDX; test: Efficacy in LXFS 573 SCLC PDX model; format: in vivo, mice
[9] = tested on: Salmonella typhimurium TA98 and TA 100 strains; test: Bacterial reverse mutation assay; format: cell-based; details: up to 500 μg/mL; with and without S9
[10] = Exploratory toxicity study in dogs
[11] = 4-week oral gavage pivotal toxicity study with 4-week recovery in dogs (with ECG and toxicokinetics); format: in vivo, Beagle dogs
Procedure: The QTc interval was calculated using the Fridericia method.

[12] = tested on: MKL-1 cells; test: Modulation of gene expression by RNA-seq; format: cell-based, human
Procedure: Libraries were sequenced on an Illumina NextSeq® 500 System (Illumina, San Diego, Calif.) using 75 base paired-end RNA sequencing. Sequenced reads were mapped to the hg19 human genome build and differential expression was determined by analysis of variance across all replicates relative to the vehicle control.
Sequenced reads were mapped to the hg19 human genome build using the Spliced Transcripts Alignment to a Reference (STAR) software tool (OAlexander Dobin, 2009-2016) and transcript counts were normalized using the Empirical Analysis of Digital Gene Expression Data in R (edgeR) and Differential gene expression analysis based on the negative binomial distribution (DESeq2) software tools (OBioconductor, 2003-2017). Differential expression was determined by analysis of variance across all replicates relative to the vehicle control.

[13] = Metabolism in cryopreserved primary hepatocytes; format: in vitro ADME; details: mouse, rat, dog, monkey, human
[14] = Excretion in bile duct cannulated rats; format: in vivo; details: IV
[15] = tested on: GA0087 gastric NEC PDX; format: in vivo
[16] = target: hERG potassium channel (Homo sapiens (Human), UniProt Q12809); details: hERG current
[17] = Pharmacokinetics after IV and oral administration; format: in vivo, Sprague Dawley rats; details: rats
Excerpt: (§1) Human PK parameters and exposures were predicted using allometric scaling. Mice and dogs were the species used for nonclinical toxicology assessment. […] Excretion of non-radiolabeled Compound A was studied in rats.

[18] = tested on: LU2527 lung NEC PDX; format: in vivo
[19] = Pharmacokinetics after IV and oral administration; format: in vivo, CD-1 mice; details: Mouse, female, single IV 5 mg base/kg
Excerpt: as §1

[20] = tested on: NCI-H1417 SCLC xenograft; details: 24 mg/kg Etoposide SC QD × 3
[21] = Etoposide at 24 mg/kg/day SC days 1-3 + Vehicle

hERG potassium channel, sequence (Q12809 whole entry): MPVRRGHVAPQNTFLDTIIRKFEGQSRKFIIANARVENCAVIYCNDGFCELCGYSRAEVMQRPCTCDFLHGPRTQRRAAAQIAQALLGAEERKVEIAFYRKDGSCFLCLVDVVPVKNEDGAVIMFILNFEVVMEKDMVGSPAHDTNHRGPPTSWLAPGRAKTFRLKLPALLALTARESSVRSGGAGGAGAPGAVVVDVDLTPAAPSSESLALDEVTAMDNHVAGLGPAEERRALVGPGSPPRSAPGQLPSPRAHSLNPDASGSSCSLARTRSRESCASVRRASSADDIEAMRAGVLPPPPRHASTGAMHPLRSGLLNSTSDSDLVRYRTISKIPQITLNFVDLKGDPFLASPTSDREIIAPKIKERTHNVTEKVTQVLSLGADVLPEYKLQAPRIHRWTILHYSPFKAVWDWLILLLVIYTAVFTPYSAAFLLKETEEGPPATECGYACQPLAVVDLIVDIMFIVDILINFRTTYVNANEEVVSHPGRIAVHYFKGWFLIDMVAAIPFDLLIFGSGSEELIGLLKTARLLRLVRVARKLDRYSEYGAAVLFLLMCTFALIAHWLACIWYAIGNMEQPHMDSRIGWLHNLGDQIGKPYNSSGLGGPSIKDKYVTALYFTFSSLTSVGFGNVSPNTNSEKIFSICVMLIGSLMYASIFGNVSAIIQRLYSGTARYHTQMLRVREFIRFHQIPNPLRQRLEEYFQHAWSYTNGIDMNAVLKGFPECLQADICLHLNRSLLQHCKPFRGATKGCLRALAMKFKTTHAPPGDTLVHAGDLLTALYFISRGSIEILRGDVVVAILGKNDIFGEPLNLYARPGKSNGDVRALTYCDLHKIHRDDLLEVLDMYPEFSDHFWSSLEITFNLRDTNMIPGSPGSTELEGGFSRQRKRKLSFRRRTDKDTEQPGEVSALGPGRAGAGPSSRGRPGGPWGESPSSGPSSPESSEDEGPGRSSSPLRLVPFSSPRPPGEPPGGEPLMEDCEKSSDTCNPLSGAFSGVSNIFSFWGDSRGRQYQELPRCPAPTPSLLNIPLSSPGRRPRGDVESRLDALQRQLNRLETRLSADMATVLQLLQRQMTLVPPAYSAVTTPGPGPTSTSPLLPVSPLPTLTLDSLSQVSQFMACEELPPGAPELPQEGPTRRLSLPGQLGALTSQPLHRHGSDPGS

## COc1ccc(-c2c(-c3ccc(C#N)c(F)c3)nc(N3CCC(N)CC3)n(C)c2=O)cc1F [Compound A, 4-[2-(4-amino-piperidin-1-yl)-5-(3-fluoro-4-methoxy-phenyl)-1-methyl-6-oxo-1,6-dihydro-pyrimidin-4-yl]-2-fluoro-benzonitrile]
[1]
  mean body weight losses: < 10%
[2]; Compound A 1 mg/kg in combination with etoposide 24 mg/kg
  tumor volume of survivor at study end: 1430 mm3
[2]; Compound A 1 mg/kg in combination with etoposide 24 mg/kg, n=8
  survivors on Day 133: 1 animals
[2]; Compound A 2.5 mg/kg in combination with etoposide 24 mg/kg
  MTV of survivors on Day 133: 1121 mm3
[2]; Compound A 2.5 mg/kg in combination with etoposide 24 mg/kg, n=8
  survivors on Day 133: 3 animals
[2]; Compound A 5 mg/kg in combination with etoposide 24 mg/kg
  MTV of survivors on Day 133: 121 mm3
[2]; Compound A 5 mg/kg in combination with etoposide 24 mg/kg, n=8
  survivors on Day 133: 8 animals
[2]; Compound A at 5 mg/kg/day PO days 1-133
  Median TTE: 133 days
[2]; Compound A at 5 mg/kg/day
  SS, number of study survivors: 7
[2]; Compound A monotherapy 5 mg/kg, n=8
  study survivors on Day 133: seven
[3]
  Median Tumor Volumes Day −3: 65 mm^3
[4]; 2.5 mg base/kg PO QD×65
  mean body weight gain by end of study: 1%
[4]; 5 mg base/kg PO QD×65
  mean body weight gain by end of study: 7.5%
[4]; 2.5 or 5 mg base/kg PO QD×65
  tolerability: well tolerated
[5]; 10 mg/kg/day 5 days on/2 days off
  increase in platelets on Day 8 vs end of first dosing period: > 2 fold
[5]; 5 days on/2 days off schedule
  greatest reduction in neutrophil counts vs controls and pre-study values: approximately 90%
[5]; all dose levels
  circulating platelets at end of study: reduced
[6]
  Median Tumor Volumes Day −3: 49 mm^3
[7]; 20 mg base/kg IV, 9 minutes into 10-minute infusion
  maximum suppression of HR vs vehicle: 19%
[7]; IV 5-20 mg base/kg vs time-matched vehicle
  effect on MAP or its components: No notable effect
[7]; after escalating IV doses
  QTcB interval increase at end of monitoring period: 10%
[8]; 5 mg base/kg PO QD × 28
  Median Tumor Volumes Day 1: 108.4 mm^3
[8]; 5 mg base/kg oral
  TGI end of study (Day 28): 78%
[8]; 7.5 mg base/kg PO QD × 28
  Median Tumor Volumes Day 1: 113.2 mm^3
[8]; 10 mg base/kg PO QD × 28
  Median Tumor Volumes Day 1: 113.8 mm^3
[9]
  mutagenicity: negative
[10]; 0.25 mg/kg/dose QOD
  Compound A-related effects: generally no Compound A-related effects
[10]; 0.5 mg/kg/day 5 days on/2 days off, Day 12
  body weight loss of moribund female: 10.8%
[10]; 0.5 mg/kg/day 5 days on/2 days off, one female, Day 12
  mortality: sacrificed moribund
[11]; 0.375 mg base/kg QW
  animals euthanized moribund: 1 male
[11]; 0.75 mg base/kg QW
  animals euthanized moribund: 2 males and 1 female
[11]; 1.5 mg base/kg QW
  animals euthanized moribund: 3 males and 4 females
[11]; dog, in vivo
  recovery of findings after 4-week treatment-free period: complete recovery
[11]; weekly oral administration, study Days 13 to 23
  animals euthanized moribund: 11 animals
[12]; MKL-1 and MS-1, 10 and 100 nM, 3 days
  downregulated genes changed in both hMCC lines at both concentrations (of 4303): 17 genes
[12]; both hMCC lines, 10 and 100 nM
  ST18 and FREM2 gene expression change (upregulated, dose-dependent): at least 2 fold
[13]
  metabolic stability in hepatocytes: greater in rat and dog followed by human and monkeys while being least stable in mouse hepatocytes
[14]; 24 hours
  dose excreted intact in urine: 8.5 % of dose
[14]; bile duct cannulated rats
  dose excreted intact in 24 hours (urine + bile): 26.3 % of the dose
[15]; Group 2, 1.5 mg base/kg PO QD × 53
  Median Tumor Volumes Day 0: 128.9 mm^3
[15]; Group 3, dose printed 1.5 mg base/kg (text: 5 mg/kg) PO QD × 53
  Median Tumor Volumes Day 0: 127.6 mm^3
[16]
  Hill coefficient: 1.2
[17]
  systemic clearance: greater than liver blood flow
[18]; 1.5 mg base/kg PO QD × 46
  Median Tumor Volumes Day 0: 148.2 mm^3
[18]; 5 mg base/kg PO QD × 46
  Median Tumor Volumes Day 0: 151.8 mm^3
[19]; CD-1, plasma
  clearance: 39 mL/min/kg
[19]
  Vss: 7.31 L/kg

## COc1cc([C@@H]2c3cc4c(cc3[C@@H](O[C@@H]3O[C@@H]5CO[C@@H](C)O[C@H]5[C@H](O)[C@H]3O)[C@H]3COC(=O)[C@H]23)OCO4)cc(OC)c1O [Etoposide, etoposide, reference compound]
[2]; Etoposide at 24 mg/kg/day + Vehicle
  SS, number of study survivors: 0 (na)
[2]; [21]
  Median TTE: 63 days
  T-C: 21 days
[2]; etoposide monotherapy 24 mg/kg
  % TGD: 50%
  TGD: 21 days
[2]; etoposide monotherapy 24 mg/kg SC daily Days 1-3
  Median TTE: 63 days
[20]
  % TGD: 97%
  Median TTE: 50 days
  T − C: 24 days
